Here are results for 7 compounds from paper PMC3805573, “Methylglyoxal Evokes Pain by Stimulating TRPA1” (PLoS ONE, 2013).

One data set has as its system TRPA1. In words: Outward TRPA1 currents in absence of Ca2+, effect of DTT. The format is cell-based. The following applies: +60 mV, Ca2+-free. The procedure:
DRG neurons and TRPA1 CHO cells were studied under voltage-clamp conditions using an Axopatch 200B amplifier and pClamp 10.0 software (Molecular Devices, Sunnyvale, CA). Except where stated otherwise, whole cell recordings were performed at a holding potential of –60 mV using an extracellular solution with the composition described above for [Ca^2+]i measurements. Borosilicate glass pipettes (2–5 MΩ, 75–80% series resistance compensation) were filled with (in mM) 140 KCl, 1 CaCl2, 2 MgATP, 10 EGTA, and 10 HEPES buffered to pH 7.4 (KOH). Excised inside-out patches were recorded using a Ca^2+-free solution containing (in mM) 140 NaCl, 5 KCl, 1 MgCl2, 10 HEPES and 1 EGTA, pH 7.4 (NaOH) in the pipettes and perfused with 140 KCl, 2 MgATP, 1 EGTA, and 10 HEPES (pH 7.4). DRG neurons were studied using an intracellular solution containing (in mM) 140 CsCl, 1 CaCl2, 2 MgATP, 10 EGTA and 10 HEPES, pH 7.4 (CsOH). Drugs were applied by local microperfusion with a rapid solution changer (RSC-200, Biologic, Claix, France).
It is possible that MG stimulates TRPA1 through formation of reversible hemithioacetals with cysteine residues other than those examined here, [40]. To investigate this possibility we examined the effect of the reducing agent dithiothreitol (DTT, 2 mM) on outward TRPA1 currents recorded in the absence of Ca^2+ (5 mM BAPTA intracellularly, 1 mM EGTA extracellularly) to avoid Ca^2+-mediated inactivation or desensitization. We used DTT to determine whether disulfide bridge formation or reversible noncovalent interactions contribute to the agonist activity of MG. DTT is expected to rapidly reduce cystine bridges to free thiols, but also to form hemithioacetals with MG, thereby accelerating current decay. Covalent modification of arginine and lysine residues by MG and modification of cysteine residues by AITC are on the other hand resistant to DTT [31]. […] This is consistent with the expected oxidative formation of cystine bridges and their reduction by DTT [4]. The contrast between the stable currents produced by H2O2 and the spontaneously reversible currents evoked by MG highlights the reversible nature of the interaction between MG and TRPA1. […] We also observed that repeated applications of MG and H2O2 evoked reproducible current responses of similar amplitudes, whereas an application of AITC prevented subsequent channel activation by AITC challenges (Fig. 4C-E). We conclude that MG acts through a reversible interaction with TRPA1 and that H2O2 relies on DTT sensitive oxidative modification of TRPA1 protein for its activity. […] In contrast, the covalent modification produced by AITC appears irreversible and renders TRPA1 refractory to subsequent activation.

The test system of another data set is beta cells. The data set can be described thus: [Ca2+]i-responses in pancreatic beta cells. The format is cell-based, mice. Particulars: AITC, cells from wildtype or Trpa1-/- mice (data not shown). The procedure:
Mouse islets of Langerhans were isolated from the exocrine pancreas by collagenase digestion (1 mg/ml, type XI, Sigma, Poole, UK). Islets were dissociated by 15 min incubation in trypsin (0.5%, Sigma, Poole, UK) followed by trituration through a flame polished glass Pasteur pipette and the islet cells were seeded on glass cover slips.
(§1) Cells were loaded with 2 µM Fura-2 AM (Molecular Probes, Paisley, UK) in the presence of 1 mM probenecid for ∼1 hr. The experiments were performed in a physiological saline solution containing (in mM) 140 NaCl, 5 KCl, 10 glucose, 10 HEPES, 2 CaCl2, and 1 MgCl2, buffered to pH 7.4 with NaOH. Compounds were applied to cells by local continuous microperfusion of solution through a fine tube placed in close proximity of the cells studied. Images of a group of cells were captured every 2 sec using 340 and 380 nm excitation wavelengths with emission measured at 520 nm with a microscope based imaging system (PTI, New Jersey). Analyses of emission intensity ratios at 340 nm/380 nm excitation (R, in individual cells) were performed using the ImageMaster suite of software.

Another data set concerns the target T1, mTRPA1 K712Q (Mus musculus, UniProt Q8BLA8, K712Q).
T1 construct: expressed in transfected cells; host or cells: CHO cells
The data set can be described thus: [Ca2+]i-responses of mTRPA1 K712Q in CHO cells. It is filed as cell-based. The procedure:
(§2) Untransfected CHO cells and CHO cells expressing mouse or human TRPA1 were grown in MEM Glutamax or AQ medium supplemented with penicillin (100 U/ml), streptomycin (100 µg/ml), and FCS (10%). Plasmids encoding mutated TRPA1 channels were kindly provided by Dr. Ardem Patapoutian. All media, serum and antibiotics were from Invitrogen (Paisley, UK) or Sigma (Poole, UK).
as §1

The subject of data set [1] is human TRPA1 C621S, C641S or C665S. In words: [Ca2+]i-responses of human TRPA1 point mutants C621S, C641S, C665S. It is filed as cell-based. Particulars: human TRPA1 single point mutants vs wildtype. The procedure:
as §2
as §1, with “Analyses of emission intensity ratios at 340 nm/380 nm excitation (R, in individual cells) were performed using the ImageMaster suite of software.” left out
Changes in intracellular calcium ([Ca^2+]i) in response to agonists were determined in TRPA1 expressing CHO cells and MDCK cells using a Flexstation 3 (Molecular Devices). […] Basal emission ratios (340 nm/380 nm) were measured and changes in ratio determined at various times after compound addition.

The subject of the next data set is MDCK cells. The data set can be described thus: [Ca2+]i-measurements in MDCK cells. It is filed as cell-based, Canine. The procedure: MDCK cells were grown in DMEM (Invitrogen) supplemented with 5% fetal bovine serum, 100 U/ml penicillin and 100 µg/ml streptomycin. […] The experiments were performed in a physiological saline solution containing (in mM) 140 NaCl, 5 KCl, 10 glucose, 10 HEPES, 2 CaCl2, and 1 MgCl2, buffered to pH 7.4 with NaOH. Compounds were applied to cells by local continuous microperfusion of solution through a fine tube placed in close proximity of the cells studied. […] Analyses of emission intensity ratios at 340 nm/380 nm excitation (R, in individual cells) were performed using the ImageMaster suite of software. […] Cells grown in 96 well black walled plates (Costar, Tewksbury, MA) were loaded with Fura 2-AM in the presence of 1 mM probenecid at 37°C for 1–1.5 hours and assays were carried out at 25°C. Basal emission ratios (340 nm/380 nm) were measured and changes in ratio determined at various times after compound addition.

A further data set concerns mice. The data set can be described thus: Acute GLO-1 inhibition, paw pressure and von Frey tests. It is filed as in vivo. Particulars: 1 h after administration, 50 mg/kg i.p. The procedure:
(§3) Mechanical thresholds were measured using an Analgesymeter (Ugo-Basile, Milan). Mice were kept in their holding cages to acclimatize (10–15 min) to the experimental room. The experimenter then lightly restrained the mouse and applied an increasing pressure stimulus to the dorsal surface of the hind paw using a blunt conical probe. The nociceptive threshold was defined as the force in grams at which the mouse withdrew its paw. In order to avoid tissue injury a 150 g force cut-off value was used.
Tactile allodynia was assessed by measuring withdrawal thresholds to calibrated von Frey filaments (0.008–2 g). Animals were placed in a Perspex chamber with a metal grid floor giving access to the underside of their paws and allowed to acclimatize prior to the start of the experiment. […] Using a modified ‘up-down’ method the lowest force filament producing a positive response was recorded as the threshold.
(§4) Methylglyoxal (250 nmoles in 25 µl saline) was injected subcutaneously into the plantar surface of one of the hind paws using a 50 µl luer-syringe (Hamilton Co.) fitted with a 26-gauge x 3/8 inch intradermal needle. Immediately after injection, mice were placed inside a Perspex chamber and the duration of the pain-related behaviors (licking and biting or flinching and shaking of the injected paw) recorded using a digital stop-watch. […]

Data set [2] has as its system Trpa1+/+ and Trpa1-/- mice. The data set can be described thus: Two week GLO-1 inhibition, nociceptive responses to cold, heat and mechanical stimulation. It is filed as in vivo. The procedure: Data shown are from male and female homozygote Trpa1^− ^/− and Trpa1 ^+/+. The Trpa1-null mice and wild-type littermates were bred from heterozygotic mice provided by Drs. Kelvin Kwan and David Corey (Harvard Medical School, Boston, MA).
as §3
Tactile allodynia was assessed by measuring withdrawal thresholds to calibrated von Frey filaments (0.008–2 g). Animals were placed in a Perspex chamber with a metal grid floor giving access to the underside of their paws and allowed to acclimatize prior to the start of the experiment. Von Frey filaments were applied perpendicular to the mid plantar surface of the hind paw with sufficient force to cause slight bending against the paw and held for a few seconds. This was repeated 5 times at intervals of 1–2 s. A positive response was noted if the paw was sharply withdrawn or there was flinching upon removal of the hair. […] Using a modified ‘up-down’ method the lowest force filament producing a positive response was recorded as the threshold.
Heat and cold sensitivities were assessed by measuring the time for paw withdrawal from a 50°C hotplate or 10°C coldplate (Ugo Basile, Milan) of lightly restrained mice.
as §4

Data set [3] deals with Trpa1+/+ and Trpa1-/- mice. In words: Intraepidermal nerve fiber density in plantar skin (PGP9.5). Particulars: 2 weeks treatment, 50 mg/kg every other day, either genotype. It is filed as in vivo. The procedure:
Formalin fixed plantar skin was embedded in paraffin wax and cut in 8 µm sections and stained with rabbit polyclonal anti-PGP9.5 (1 in 5000, Ultraclone Ltd, UK) after citric acid heat induced epitope retrieval. Staining was visualized using anti-rabbit IgG labeled with Alexa-594. The number of PGP9.5 positive fibers crossing the basal membrane into the epidermis was determined in n = 6 mice for each group on a Zeiss Axioplan 2 microscope. The observer was blinded to the treatment.

Data set [4] relates to Trpa1+/+ and Trpa1-/- mice. In words: Glucose tolerance test, blood glucose. It is filed as in vivo. The protocol: The glucose tolerance test was performed in mice (not fasted) treated i.p. with 2 g/kg glucose or vehicle (0.2 ml, 0.9% saline). HC030031 (100 mg/kg) or vehicle (DMSO 10%, Tween 80 5%, 0.9% saline 85%) was administered i.p. 30 min before glucose or vehicle. Glucose concentrations were determined using a Contour blood glucose meter (Bayer Diabetes Care) in blood samples taken from the tail-tip.

The EC50 is the concentration giving half of the maximal effect.

Each structure is given as a SMILES string.

T1 sequence (Q8BLA8 whole entry K712Q): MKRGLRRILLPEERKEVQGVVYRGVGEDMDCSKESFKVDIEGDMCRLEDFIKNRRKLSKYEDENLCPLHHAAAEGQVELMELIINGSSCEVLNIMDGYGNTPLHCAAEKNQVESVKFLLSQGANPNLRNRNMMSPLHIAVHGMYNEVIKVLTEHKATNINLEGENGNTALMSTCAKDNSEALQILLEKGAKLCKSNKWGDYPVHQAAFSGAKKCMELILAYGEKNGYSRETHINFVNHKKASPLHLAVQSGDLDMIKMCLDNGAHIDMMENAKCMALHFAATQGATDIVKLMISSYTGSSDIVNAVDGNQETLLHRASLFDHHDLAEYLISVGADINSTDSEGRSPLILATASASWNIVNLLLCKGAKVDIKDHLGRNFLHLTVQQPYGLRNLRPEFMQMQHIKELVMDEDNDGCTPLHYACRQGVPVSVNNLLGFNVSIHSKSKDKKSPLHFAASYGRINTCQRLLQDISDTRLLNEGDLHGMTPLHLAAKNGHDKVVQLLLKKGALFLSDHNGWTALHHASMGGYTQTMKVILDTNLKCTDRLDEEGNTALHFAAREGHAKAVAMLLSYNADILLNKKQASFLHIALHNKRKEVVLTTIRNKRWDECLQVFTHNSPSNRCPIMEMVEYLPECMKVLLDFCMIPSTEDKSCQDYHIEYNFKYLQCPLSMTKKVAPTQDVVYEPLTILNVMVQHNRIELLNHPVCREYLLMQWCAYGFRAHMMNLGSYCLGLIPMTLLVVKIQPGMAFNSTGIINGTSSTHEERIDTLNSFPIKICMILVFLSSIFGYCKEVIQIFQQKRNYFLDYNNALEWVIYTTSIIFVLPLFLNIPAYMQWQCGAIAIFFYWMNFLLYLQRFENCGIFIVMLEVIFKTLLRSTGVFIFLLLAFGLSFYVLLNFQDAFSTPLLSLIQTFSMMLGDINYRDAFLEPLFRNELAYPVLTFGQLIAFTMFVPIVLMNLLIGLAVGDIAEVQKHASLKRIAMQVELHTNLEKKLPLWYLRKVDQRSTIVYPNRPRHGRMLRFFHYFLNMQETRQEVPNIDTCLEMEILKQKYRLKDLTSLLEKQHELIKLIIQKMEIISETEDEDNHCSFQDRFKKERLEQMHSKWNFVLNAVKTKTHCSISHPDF

As for `C=CCN=C=S` [AITC], in the data set on TRPA1 (AITC 50 µM), the “effect of DTT (2 mM) on agonist-evoked TRPA1 current” value is reported as “resistant to treatment with DTT” and the “outward TRPA1 current after removal of agonist” value is listed as “declined with time after removal of AITC”. The “[Ca2+]i-responses in beta cells” value in the data set with beta cells is “failed to elicit [Ca^2+]i-responses”. Also, the “amplitude of [Ca2+]i-responses in mTRPA1 K712Q compared to WT mTRPA1” value on mTRPA1 K712Q (AITC 50 µM) is reported as “significantly reduced”. In addition, in data set [1], the “effect of substitutions C621S, C641S, C665S on sensitivity to AITC” value is reported as “very substantially reduced”. Moreover, the “[Ca2+]i-influx response” value in the data set on MDCK cells (100 µM) is “evoked [Ca^2+]i-influx responses”. The EC50 with MDCK cells (read-out: EC50, [Ca2+]i-responses) stood at 9.1 ± 2 µM.
In the case of `CC(=Cc1ccc(Cl)cc1)C(C)=NO` [AP18, 4-(4-chlorophenyl)-3-methylbut-3-en-2-one oxime], the “effect on concentration-response curves for AITC and MG” value in the data set with MDCK cells (AP18 10 µM) was “produced similar rightward shifts”.
`NC(CCC(=O)NC(CSCc1ccc(Br)cc1)C(=O)NCC(=O)OC1CCCC1)C(=O)OC1CCCC1` (stereo not drawn) [GLO-1 inhibitor, Sr-p-Bromobenzylglutathione cyclopentyl diester]: in the data set with mice, the “sensitivity in the paw pressure test” value is given as “unaffected” and the “sensitivity in the von Frey filaments test” value was “unaffected”. The “sensitivity to all four test modalities” value in [2] (Trpa1+/+ mice, after day 4, 7 administrations over 2 weeks, 50 mg/kg i.p.) was “progressively increased”. Besides, the “sensitivity to cold, heat, paw-pressure and von Frey stimulation” value in [2] (first 4 days of the study, 50 mg/kg i.p. every 2 days) was “no increased sensitivity in any of the tests”. Further, the persistence of hypersensitivities result in data set [2] (two weeks after cessation of drug administration) was “no sign of reversal”. Besides, the “IENF density compared to vehicle treated mice” value in data set [3] is reported as “failed to produce a significant reduction”.
Turning to `CC(C)c1ccc(NC(=O)Cn2cnc3c2c(=O)n(C)c(=O)n3C)cc1` [HC030031], the “blood glucose in mice not challenged with glucose” value in data set [4] (100 mg/kg i.p.) is “increased the blood glucose”. The “blood glucose following a glucose challenge” value in [4] (100 mg/kg i.p. 30 min before glucose 2 g/kg i.p., both Trpa1+/+ and Trpa1-/- mice) is “dramatically enhanced the increase in blood glucose”.
For `O=C/C=C/c1ccccc1` [cinnamaldehyde], the “[Ca2+]i-influx response” value with MDCK cells (1 mM) was “evoked [Ca^2+]i-influx responses”.
For `OO` [hydrogen peroxide], in the data set with TRPA1 (H2O2 5 mM), the “effect of DTT (2 mM) on agonist-evoked TRPA1 current” value is given as “rapidly reduced the current amplitude” and the “outward TRPA1 current after removal of agonist” value was “remained at a stable amplitude after removal of H2O2”. Moreover, in the data set with MDCK cells (20 mM), the “[Ca2+]i-influx response” value was “evoked [Ca^2+]i-influx responses”.
Consider `CC1=C[C@H]2c3c(O)cc(C)cc3OC(C)(C)[C@@H]2CC1` [Δ^9-tetrahydrocannabiorcol], for which, at mTRPA1 K712Q (20 µM (Fig. 4D)), the “amplitude of [Ca2+]i-responses in mTRPA1 K712Q compared to WT mTRPA1” value is “significantly reduced”.
